From patent US20020049223A1, “Quinoline and naphthyridine carboxylic acid antibacterials” (priority 1999, published 2002)
Each block holds one compound with its values, some of them ahead of it.

Key:
Assay in all cases: Assay B: in vitro antibacterial activity, broth microdilution MIC (NCCLS)
Type in all cases: cell-based
[1] = tested on: Haemophilus influenzae DILL AMP R; settings: Table 2, Assay B, Mueller Hinton broth with yeast extract, hematin and NAD, 20 to 24 hr; code E = Haemophilus influenzae DILL AMP R; unit assumed
How it was run: (§1)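 NCCLS broth microdilution with two-fold dilutions in cation-adjusted Mueller Hinton broth, inoculum about 5×10^5 CFU/mL, 35 °C in ambient air for 16-20 h; MIC read visually as lowest concentration completely inhibiting growth. S. pneumoniae: 3% lysed horse blood, 20-24 h; H. influenzae: 5 g/L yeast extract, 0.3 mmol/L hematin, 15 mg/L NAD, 20-24 h.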

[2] = tested on: Staphylococcus aureus ATCC 6538P; settings: Table 2, Assay B, cation-adjusted Mueller Hinton broth, 35° C., 16 to 20 hr; code A = Staphylococcus aureus ATCC 6538P; unit assumed
How it was run: as §1

[3] = tested on: Enterococcus faecalis PIU 1967; settings: Table 2, Assay B, cation-adjusted Mueller Hinton broth, 35° C., 16 to 20 hr; code B = Enterococcus faecalis PIU 1967; unit assumed
How it was run: as §1

[4] = tested on: Escherichia coli JUHL; settings: Table 2, Assay B, cation-adjusted Mueller Hinton broth, 35° C., 16 to 20 hr; code D = Escherichia coli JUHL; unit assumed
How it was run: as §1

[5] = tested on: Streptococcus pneumoniae ATCC 6303; settings: Table 2, Assay B, Mueller Hinton broth with 3% lysed horse blood, 20 to 24 hr; code F = Streptococcus pneumoniae ATCC 6303; unit assumed
How it was run: as §1

SMILES: COc1c(-c2cc3c(s2)CNCC3O)ccc2c(=O)c(C(=O)O)cn(C3CC3)c12 (stereo not drawn) [Example 209, 1-cyclopropyl-7-(4-hydroxy-4,5,6,7-tetrahydrothieno[2,3-c]pyridin-2-yl)-8-methoxy-4-oxo-1,4-dihydro-3-quinolinecarboxylic acid]
Antibacterial Activity (MIC's), E [1]: 0.03 µg/mL | Antibacterial Activity (MIC's), A [2]: 0.125 µg/mL | Antibacterial Activity (MIC's), B [3]: 0.5 µg/mL | Antibacterial Activity (MIC's), D [4]: 0.25 µg/mL | Antibacterial Activity (MIC's), F [5]: 0.25 µg/mL

SMILES: CNC1CCCc2sc(-c3c(F)cc4c(=O)c(C(=O)O)cn(C5CC5)c4c3OC)cc21.Cl (stereo not drawn) [Example 210, 1-cyclopropyl-6-fluoro-8-methoxy-7-(4-(methylamino)-4,5,6,7-tetrahydro-1-benzothien-2-yl)-4-oxo-1,4-dihydro-3-quinolinecarboxylic acid hydrochloride]
Antibacterial Activity (MIC's), E [1]: 0.03 µg/mL | Antibacterial Activity (MIC's), A [2]: 0.06 µg/mL | Antibacterial Activity (MIC's), B [3]: 0.125 µg/mL | Antibacterial Activity (MIC's), D [4]: 0.25 µg/mL | Antibacterial Activity (MIC's), F [5]: 0.06 µg/mL

SMILES: COc1c(-c2cc3c(s2)CCCC3N2CC(N)C2)ccc2c(=O)c(C(=O)O)cn(C3CC3)c12.Cl.Cl (stereo not drawn) [Example 212, 7-[4-(3-amino-1-azetidinyl)-4,5,6,7-tetrahydro-1-benzothien-2-yl]-1-cyclopropyl-8-methoxy-4-oxo-1,4-dihydro-3-quinolinecarboxylic acid dihydrochloride]
Antibacterial Activity (MIC's), E [1]: 0.25 µg/mL | Antibacterial Activity (MIC's), A [2]: 0.125 µg/mL | Antibacterial Activity (MIC's), B [3]: 0.5 µg/mL | Antibacterial Activity (MIC's), D [4]: 0.5 µg/mL | Antibacterial Activity (MIC's), F [5]: 0.125 µg/mL

SMILES: CNC1CCCc2cc(-c3ccc4c(=O)c(C(=O)O)cn(C5CC5)c4c3OC)sc21.Cl (stereo not drawn) [Example 216, 1-cyclopropyl-8-methoxy-7-(7-(methylamino)-4,5,6,7-tetrahydro-1-benzothien-2-yl)-4-oxo-1,4-dihydro-3-quinolinecarboxylic acid hydrochloride]
Antibacterial Activity (MIC's), E [1]: 0.125 µg/mL | Antibacterial Activity (MIC's), A [2]: 0.06 µg/mL | Antibacterial Activity (MIC's), B [3]: 0.25 µg/mL | Antibacterial Activity (MIC's), D [4]: 0.25 µg/mL | Antibacterial Activity (MIC's), F [5]: 0.125 µg/mL

SMILES: COc1c(-c2cc3c(s2)C(O)CCC3(C)C)ccc2c(=O)c(C(=O)O)cn(C3CC3)c12 (stereo not drawn) [Example 218, 1-cyclopropyl-7-(7-hydroxy-4,4-dimethyl-4,5,6,7-tetrahydro-1-benzothien-2-yl)-8-methoxy-4-oxo-1,4-dihydro-3-quinolinecarboxylic acid]
Antibacterial Activity (MIC's), E [1]: 0.25 µg/mL | Antibacterial Activity (MIC's), A [2]: 0.06 µg/mL | Antibacterial Activity (MIC's), B [3]: 0.25 µg/mL | Antibacterial Activity (MIC's), D [4]: 2 µg/mL | Antibacterial Activity (MIC's), F [5]: 0.5 µg/mL

SMILES: COc1c(-c2cc3c(s2)C(N)CCC3(C)C)ccc2c(=O)c(C(=O)O)cn(C3CC3)c12.Cl (stereo not drawn) [Example 222, 7-(7-amino-4,4-dimethyl-4,5,6,7-tetrahydro-1-benzothien-2-yl)-1-cyclopropyl-8-methoxy-4-oxo-1,4-dihydro-3-quinolinecarboxylic acid hydrochloride]
Antibacterial Activity (MIC's), E [1]: 0.5 µg/mL | Antibacterial Activity (MIC's), A [2]: 0.125 µg/mL | Antibacterial Activity (MIC's), B [3]: 0.5 µg/mL | Antibacterial Activity (MIC's), D [4]: 1 µg/mL | Antibacterial Activity (MIC's), F [5]: 0.25 µg/mL

SMILES: COc1c(-c2cc3c(s2)CCCC3N)c(F)cc2c(=O)c(C(=O)O)cn(C3CC3)c12.Cl (stereo not drawn) [Example 224, 7-(4-amino-4,5,6,7-tetrahydro-1-benzothien-2-yl)-1-cyclopropyl-6-fluoro-8-methoxy-4-oxo-1,4-dihydro-3-quinolinecarboxylic acid hydrochloride]
Antibacterial Activity (MIC's), E [1]: 0.015 µg/mL | Antibacterial Activity (MIC's), A [2]: 0.015 µg/mL | Antibacterial Activity (MIC's), B [3]: 0.03 µg/mL | Antibacterial Activity (MIC's), D [4]: 0.125 µg/mL | Antibacterial Activity (MIC's), F [5]: 0.03 µg/mL

The next lines start with the values.

Antibacterial Activity (MIC's), E [1]: 0.125 µg/mL | Antibacterial Activity (MIC's), A [2]: 0.5 µg/mL | Antibacterial Activity (MIC's), B [3]: 0.5 µg/mL | Antibacterial Activity (MIC's), D [4]: 1 µg/mL | Antibacterial Activity (MIC's), F [5]: 0.25 µg/mL
SMILES: COc1c(-c2cc3c(s2)CNCC3N)ccc2c(=O)c(C(=O)O)cn(C3CC3)c12 (stereo not drawn) [Example 225, 7-(4-amino-4,5,6,7-tetrahydrothieno[2,3-c]pyridin-2-yl)-1-cyclopropyl-8-methoxy-4-oxo-1,4-dihydro-3-quinolinecarboxylic acid]

Antibacterial Activity (MIC's), E [1]: 2 µg/mL | Antibacterial Activity (MIC's), A [2]: 0.5 µg/mL | Antibacterial Activity (MIC's), B [3]: 2 µg/mL | Antibacterial Activity (MIC's), D [4]: > 64 µg/mL | Antibacterial Activity (MIC's), F [5]: 8 µg/mL
SMILES: COc1c(-c2cc3c(s2)CCCC3(C)C)ccc2c(=O)c(C(=O)O)cn(C3CC3)c12 [Example 227, 1-cyclopropyl-7-(4,4-dimethyl-4,5,6,7-tetrahydro-1-benzothien-2-yl)-8-methoxy-4-oxo-1,4-dihydro-3-quinolinecarboxylic acid]

Antibacterial Activity (MIC's), E [1]: 0.25 µg/mL | Antibacterial Activity (MIC's), A [2]: 0.125 µg/mL | Antibacterial Activity (MIC's), B [3]: 1 µg/mL | Antibacterial Activity (MIC's), D [4]: 1 µg/mL | Antibacterial Activity (MIC's), F [5]: 0.125 µg/mL
SMILES: COc1c(-c2cc3c(s2)C(N)CN(S(C)(=O)=O)C3)ccc2c(=O)c(C(=O)O)cn(C3CC3)c12 (stereo not drawn) [Example 230, 7-(7-amino-5-(methylsulfonyl)-4,5,6,7-tetrahydrothieno[3,2-c]pyridin-2-yl)-1-cyclopropyl-8-methoxy-4-oxo-1,4-dihydro-3-quinolinecarboxylic acid]

Antibacterial Activity (MIC's), E [1]: 0.125 µg/mL | Antibacterial Activity (MIC's), A [2]: 0.06 µg/mL | Antibacterial Activity (MIC's), B [3]: 0.5 µg/mL | Antibacterial Activity (MIC's), D [4]: 0.25 µg/mL | Antibacterial Activity (MIC's), F [5]: 0.125 µg/mL
SMILES: COc1c(-c2sc3c(c2C)C(N)CCC3)ccc2c(=O)c(C(=O)O)cn(C3CC3)c12.Cl (stereo not drawn) [Example 232, 7-(4-amino-3-methyl-4,5,6,7-tetrahydro-1-benzothien-2-yl)-1-cyclopropyl-8-methoxy-4-oxo-1,4-dihydro-3-quinolinecarboxylic acid hydrochloride]

Antibacterial Activity (MIC's), E [1]: 0.5 µg/mL | Antibacterial Activity (MIC's), A [2]: 0.03 µg/mL | Antibacterial Activity (MIC's), B [3]: 0.5 µg/mL | Antibacterial Activity (MIC's), D [4]: 2 µg/mL | Antibacterial Activity (MIC's), F [5]: 0.5 µg/mL
SMILES: COc1c(-c2cc3c(s2)CC(C)(C)CC3O)ccc2c(=O)c(C(=O)O)cn(C3CC3)c12 (stereo not drawn) [Example 234, 1-cyclopropyl-7-(4-hydroxy-6,6-dimethyl-4,5,6,7-tetrahydro-1-benzothien-2-yl)-8-methoxy-4-oxo-1,4-dihydro-3-quinolinecarboxylic acid]

Antibacterial Activity (MIC's), E [1]: 0.06 µg/mL | Antibacterial Activity (MIC's), A [2]: 0.015 µg/mL | Antibacterial Activity (MIC's), B [3]: 0.25 µg/mL | Antibacterial Activity (MIC's), D [4]: 0.25 µg/mL | Antibacterial Activity (MIC's), F [5]: 0.06 µg/mL
SMILES: COc1c(-c2cc3c(s2)C(N)C(C)CC3)ccc2c(=O)c(C(=O)O)cn(C3CC3)c12.Cl (stereo not drawn) [Example 235, 7-(7-amino-6-methyl-4,5,6,7-tetrahydro-1-benzothien-2-yl)-1-cyclopropyl-8-methoxy-4-oxo-1,4-dihydro-3-quinolinecarboxylic acid hydrochloride]

Antibacterial Activity (MIC's), E [1]: 0.5 µg/mL | Antibacterial Activity (MIC's), A [2]: 0.125 µg/mL | Antibacterial Activity (MIC's), B [3]: 1 µg/mL | Antibacterial Activity (MIC's), D [4]: 4 µg/mL | Antibacterial Activity (MIC's), F [5]: 4 µg/mL
SMILES: COc1c(-c2cc3c(s2)CC(C)(C)CC3)ccc2c(=O)c(C(=O)O)cn(C3CC3)c12 [Example 236, 1-cyclopropyl-7-(6,6-dimethyl-4,5,6,7-tetrahydro-1-benzothien-2-yl)-8-methoxy-4-oxo-1,4-dihydro-3-quinolinecarboxylic acid]

Antibacterial Activity (MIC's), E [1]: 0.03 µg/mL | Antibacterial Activity (MIC's), A [2]: 0.015 µg/mL | Antibacterial Activity (MIC's), B [3]: 0.5 µg/mL | Antibacterial Activity (MIC's), D [4]: 0.125 µg/mL | Antibacterial Activity (MIC's), F [5]: 0.125 µg/mL
SMILES: COc1c(-c2cc3c(s2)C(N)C(F)CC3)ccc2c(=O)c(C(=O)O)cn(C3CC3)c12.Cl (stereo not drawn) [Example 237, 7-(7-amino-6-fluoro-4,5,6,7-tetrahydro-1-benzothien-2-yl)-1-cyclopropyl-8-methoxy-4-oxo-1,4-dihydro-3-quinolinecarboxylic acid hydrochloride]

Antibacterial Activity (MIC's), E [1]: 0.125 µg/mL | Antibacterial Activity (MIC's), A [2]: 0.03 µg/mL | Antibacterial Activity (MIC's), B [3]: 0.5 µg/mL | Antibacterial Activity (MIC's), D [4]: 0.25 µg/mL | Antibacterial Activity (MIC's), F [5]: 0.06 µg/mL
SMILES: COc1c(-c2cc3c(s2)CC(C)(C)CC3N)ccc2c(=O)c(C(=O)O)cn(C3CC3)c12.Cl (stereo not drawn) [Example 238, 7-(4-amino-6,6-dimethyl-4,5,6,7-tetrahydro-1-benzothien-2-yl)-1-cyclopropyl-8-methoxy-4-oxo-1,4-dihydro-3-quinolinecarboxylic acid hydrochloride]

Antibacterial Activity (MIC's), E [1]: 4 µg/mL | Antibacterial Activity (MIC's), A [2]: 1 µg/mL | Antibacterial Activity (MIC's), B [3]: 32 µg/mL | Antibacterial Activity (MIC's), D [4]: 32 µg/mL | Antibacterial Activity (MIC's), F [5]: > 64 µg/mL
SMILES: COc1c(-c2nc3c(s2)C(=O)CCC3)ccc2c(=O)c(C(=O)O)cn(C3CC3)c12 [Example 239, 1-cyclopropyl-8-methoxy-4-oxo-7-(7-oxo-4,5,6,7-tetrahydro-1,3-benzothiazol-2-yl)-1,4-dihydro-3-quinolinecarboxylic acid]

Antibacterial Activity (MIC's), E [1]: 0.03 µg/mL | Antibacterial Activity (MIC's), A [2]: 0.004 µg/mL | Antibacterial Activity (MIC's), B [3]: 0.06 µg/mL | Antibacterial Activity (MIC's), D [4]: 0.5 µg/mL | Antibacterial Activity (MIC's), F [5]: 1 µg/mL
SMILES: COc1c(-c2cc3c(s2)C(O)C(F)CC3)ccc2c(=O)c(C(=O)O)cn(C3CC3)c12 (stereo not drawn) [Example 240, 1-cyclopropyl-7-(6-fluoro-7-hydroxy-4,5,6,7-tetrahydro-1-benzothien-2-yl)-8-methoxy-4-oxo-1,4-dihydro-3-quinolinecarboxylic acid]
